Results from BindingDB's records for patent US20250313563 (The Broad Institute, 2025).
“And” between values parts separate entries of the source, which are not always exact repeats. Equal entries are not always repeated.

Tests used:
[1] = target: Glycogen synthase kinase-3 alpha (Homo sapiens, UniProt P49840); experiment: TR-FRET Assay
Procedure, shortened: (§1)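 Kinase activity, measured after a 30-minute compound preincubation, was stopped with EDTA and quantified by TR-FRET using a Tb-labelled pSer641 antibody paired with streptavidin-d2.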

[2] = target: Glycogen synthase kinase-3 beta (Homo sapiens, UniProt P49841); experiment: TR-FRET Assay
Sequence of Glycogen synthase kinase-3 beta (P49841 whole entry): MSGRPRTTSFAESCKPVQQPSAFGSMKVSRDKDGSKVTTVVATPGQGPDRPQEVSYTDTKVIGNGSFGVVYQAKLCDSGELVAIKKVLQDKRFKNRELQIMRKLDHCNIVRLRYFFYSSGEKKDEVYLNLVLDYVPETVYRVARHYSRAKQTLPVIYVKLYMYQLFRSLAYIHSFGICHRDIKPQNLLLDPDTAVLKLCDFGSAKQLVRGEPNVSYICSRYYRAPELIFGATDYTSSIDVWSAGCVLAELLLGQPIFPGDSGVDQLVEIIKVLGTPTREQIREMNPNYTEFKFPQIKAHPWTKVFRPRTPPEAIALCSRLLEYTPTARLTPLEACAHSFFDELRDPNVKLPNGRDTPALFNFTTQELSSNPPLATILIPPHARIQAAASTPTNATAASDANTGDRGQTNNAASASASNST
Procedure, shortened: as §1

Sequence of Glycogen synthase kinase-3 alpha (P49840 whole entry): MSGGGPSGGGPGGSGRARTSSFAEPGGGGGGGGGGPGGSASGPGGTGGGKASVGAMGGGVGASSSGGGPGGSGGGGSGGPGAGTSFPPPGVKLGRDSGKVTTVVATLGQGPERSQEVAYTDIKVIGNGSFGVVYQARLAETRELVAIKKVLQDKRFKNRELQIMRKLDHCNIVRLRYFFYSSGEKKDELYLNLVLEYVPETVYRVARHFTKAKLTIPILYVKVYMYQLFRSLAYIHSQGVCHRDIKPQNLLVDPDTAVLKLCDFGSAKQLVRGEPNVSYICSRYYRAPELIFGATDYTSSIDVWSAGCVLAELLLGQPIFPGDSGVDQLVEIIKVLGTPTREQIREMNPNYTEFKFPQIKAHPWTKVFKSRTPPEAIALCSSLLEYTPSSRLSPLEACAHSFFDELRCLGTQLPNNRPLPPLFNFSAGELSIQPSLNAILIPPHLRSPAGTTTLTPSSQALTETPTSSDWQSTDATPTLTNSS

Row | Compound | IC50 [1] | IC50 [2]
1 | Cn1ccc(-c2cccc([C@]3(C)C4=C(CC(C)(C)CC4=O)NC4=C3C(CC(C)(C)C)N=N4)c2)n1 (some centres undefined) [US20250313563, Compound 126366] | 1000 to 5000 nM | 100 to 1000 nM
2 | CCC1(c2cccc(S(=O)(=O)C(C)C)c2)C2=CN=NC2NC2=C1C(=O)NC(C)(C)C2 (centres undefined) [US20250313563, Compound 945464] | < 100 nM | < 100 nM
3 | CC[C@]1(c2cccc(N3CCCC3)c2)C2=C(CC(C)(C)CC2=O)NC2N=NC(C)=C21 (some centres undefined) [US20250313563, Compound 883875] | 100 to 1000 nM | 1000 to 5000 nM
4 | CCC1(c2cccc(-c3cnn4c3CCC4)c2)C2=CN=NC2NC2=C1C(=O)CC(C)(C)C2 (centres undefined) [US20250313563, Compound 947494] | < 100 nM | 100 to 1000 nM
5 | CCC1(c2cccc(N(C)C(=O)C3CCCCC3)c2)C2=CN=NC2NC2=C1C(=O)CC(C)(C)C2 (centres undefined) [US20250313563, Compound 912065] | < 100 nM | 100 to 1000 nM
6 | CC1(C)CC(=O)C2=C(C1)NC1=C(CN=N1)C21COC2(CN(C(=O)C3CCCCCC3)C2)C1 (centres undefined) [US20250313563, Compound 947308] | < 100 nM | 100 to 1000 nM
7 | CCC1(c2cccc(-c3cnn(C)c3C)c2)C2=C(CC(C)(C)NC2=O)NC2N=NC(C)=C21 (centres undefined) [US20250313563, Compound 944028] | < 100 nM | 100 to 1000 nM
8 | CC[C@]1(c2cccc(-c3ccnc(C)c3)c2)C2=CN=NC2NC2=C1C(=O)N[C@@]1(CCCOC1)C2 (some centres undefined) [US20250313563, Compound 948144] | < 100 nM | 100 to 1000 nM
9 | Cc1ccc(C)c(C(=O)N2CC3(C2)CC2(CO3)C3=C(N=NC3)NC3=C2C(=O)CC(C)(C)C3)c1 (centres undefined) [US20250313563, Compound 947285] | < 100 nM | 100 to 1000 nM
10 | CC[C@]1(c2cccc(Br)c2)C2=C(C[C@H](C)CC2=O)NC2N=NC(C(F)(F)F)=C21 (some centres undefined) [US20250313563, Compound 828848] | < 100 nM | < 100 nM
11 | CC[C@@]1(c2cccc(C(F)(F)F)c2)C2=C(N=NC2)NC2=C1C(=O)N(C)C2 [US20250313563, Compound 945368] | > 5000 nM | > 5000 nM
12 | CCn1ccc(S(=O)(=O)N2CCC3(CC2)C2=CN=NC2NC2=C3C(=O)NC(C)(C)C2)n1 (centres undefined) [US20250313563, Compound 947836] | < 100 nM | 100 to 1000 nM
13 | CC1(C)CC(=O)C2=C(C1)NC1N=NC(CC(F)(F)F)=C1[C@@]21CCc2c(F)cccc21 (some centres undefined) [US20250313563, Compound 816837] | 1000 to 5000 nM | 100 to 1000 nM
14 | CCC1(c2cccc(N(Cc3ccccc3)C(C)=O)c2)C2=CN=NC2NC2=C1C(=O)CC(C)(C)C2 (centres undefined) [US20250313563, Compound 884110] | < 100 nM | < 100 nM
15 | CC1(C)CC(=O)C2=C(C1)NC1N=NC(CCC(F)(F)F)=C1[C@]2(C)c1ccccc1 (some centres undefined) [US20250313563, Compound 856949] | 100 to 1000 nM | < 100 nM
16 | Cn1cc(S(=O)(=O)N2CCC3(CC2)C2=C(N=NC2)NC2=C3C(=O)CC(C)(C)C2)cn1 [US20250313563, Compound 901467] | < 100 nM and 100 to 1000 nM | < 100 nM and 1000 to 5000 nM
17 | CCC1(c2cccc(-c3cncn3C(C)C)c2)C2=CN=NC2NC2=C1C(=O)CC(C)(C)C2 (centres undefined) [US20250313563, Compound 944026] | < 100 nM | < 100 nM
18 | CC[C@@]1(c2cccc(-c3cnn(C)c3)c2)C2=C(CC(C)(C)CC2=O)NC2N=NC(C(F)(F)F)=C21 (some centres undefined) [US20250313563, Compound 811567] | 100 to 1000 nM | 100 to 1000 nM
19 | CCOc1cccc(S(=O)(=O)N2CCC3(CC2)C2=C(N=NC2)NC2=C3C(=O)CC(C)(C)C2)c1 [US20250313563, Compound 947253] | < 100 nM and 100 to 1000 nM | < 100 nM and 1000 to 5000 nM
20 | CCC1(c2cccc(C(F)(F)F)c2)C2=C(N=NC2)NC2=C1C(=O)CC2 (centres undefined) [US20250313563, Compound 949639] | 100 to 1000 nM | 100 to 1000 nM
21 | CCC1(c2cccc(Br)c2)C2=C(CC(C)CC2=O)NC2N=NC(C(F)(F)F)=C21 (centres undefined) [US20250313563, Compound 826715] | < 100 nM | < 100 nM
22 | CCC1(c2cccc(S(=O)(=O)C3CC3)c2)C2=C(CC(C)(C)NC2=O)NC2N=NC(C)=C21 (centres undefined) [US20250313563, Compound 947562] | < 100 nM | < 100 nM
23 | CC1(C)CC(=O)C2=C(C1)NC1=C(CN=N1)C21CCN(S(=O)(=O)Cc2ccccc2)CC1 [US20250313563, Compound 929437] | < 100 nM | < 100 nM and 100 to 1000 nM
24 | CC1(C)CC(=O)C2=C(C1)NC1=C(CN=N1)C21COC2(CN(C(=O)OC(C)(C)C)C2)C1 (centres undefined) [US20250313563, Compound 911083] | 100 to 1000 nM | 1000 to 5000 nM
25 | CCC1(c2cccc(-c3ccnc(C(F)(F)F)c3)c2)C2=CN=NC2NC2=C1C(=O)CC(C)(C)C2 (centres undefined) [US20250313563, Compound 913348] | < 100 nM | 100 to 1000 nM
26 | CC1(C)CC(=O)C2=C(C1)NC1=C(CN=N1)C21CCN(S(=O)(=O)c2c(F)cc(F)cc2F)CC1 [US20250313563, Compound 947484] | < 100 nM | < 100 nM

Row | Compound | IC50 [1] | IC50 [2]
27 | CC[C@]1(c2cccc(N(C)c3ncccn3)c2)C2=CN=NC2NC2=C1C(=O)NC(C)(C)C2 (some centres undefined) [US20250313563, Compound 943964] | < 100 nM and 100 to 1000 nM | < 100 nM and 1000 to 5000 nM
28 | CC[C@]1(c2cccc(-c3c(F)cncc3OC)c2)C2=C(N=NC2)NC2=C1C(=O)N(Cc1ccccc1)C2 [US20250313563, Compound 948549] | < 100 nM and 100 to 1000 nM | < 100 nM and 1000 to 5000 nM
29 | CC1(C)CC(=O)C2=C(C1)NC1=C(CN=N1)C21CN(C2CCCCC2)C1 [US20250313563, Compound 929446] | 1000 to 5000 nM | 1000 to 5000 nM
30 | CCC1(c2cccc(C(F)(F)F)c2)C2=CN=NC2NC2=C1C(=O)N(c1ccc(OC)cc1)CC2 (centres undefined) [US20250313563, Compound 947332] | < 100 nM | 100 to 1000 nM
31 | CCC1(c2cccc(-c3ccnc(C)c3)c2)C2=C(CC(C)(C)NC2=O)NC2N=NC(F)=C21 (centres undefined) [US20250313563, Compound 948299] | < 100 nM | 1000 to 5000 nM
32 | CC[C@@]1(c2cccc(S(C)(=O)=O)c2)C2=CN=NC2NC2=C1C(=O)CC(C)(C)C2 (some centres undefined) [US20250313563, Compound 826719] | 1000 to 5000 nM | > 5000 nM
33 | CC(C)(C)CC1N=NC2=C1[C@](C)(c1cc(S(C)(=O)=O)ccc1F)C1=C(CC(C)(C)CC1=O)N2 (some centres undefined) [US20250313563, Compound 125976] | 1000 to 5000 nM | 100 to 1000 nM
34 | CC1(C)CC(=O)C2=C(C1)NC1=C(CN=N1)C21CCN(S(=O)(=O)c2ccc(C(F)F)cc2)CC1 [US20250313563, Compound 947248] | < 100 nM | < 100 nM
35 | CC[C@]1(c2cccc(C3=C4CC=C(OC)C=C4N=CC3)c2)C2=CN=NC2NC2=C1C(=O)NC(C)(C)C2 (some centres undefined) [US20250313563, Compound 948661] | < 100 nM | 100 to 1000 nM
36 | CCC1(c2cccc(-c3cc(C)nc(OC(F)F)c3)c2)C2=CN=NC2NC2=C1C(=O)CC(C)(C)C2 (centres undefined) [US20250313563, Compound 945463] | 100 to 1000 nM | 1000 to 5000 nM
37 | CC1(C)CC(=O)C2=C(C1)NC1=C(CN=N1)C21CCN(S(=O)(=O)c2ccc(F)c(Cl)c2)CC1 [US20250313563, Compound 948117] | < 100 nM | < 100 nM
38 | CC[C@]1(c2cccc(-c3ccncc3)c2)C2=CN=NC2NC2=C1C(=O)CC(C)(C)[C@@H]2F (some centres undefined) [US20250313563, Compound 959341] | 1000 to 5000 nM | 100 to 1000 nM
39 | CC[C@]1(c2cccc(C(F)(F)F)c2)C2=CN=NC2NC2=C1C(=O)NCC2 (some centres undefined) [US20250313563, Compound 912622] | 100 to 1000 nM | 1000 to 5000 nM
40 | CC[C@@]1(c2cccc(OC)c2)C2=C(CC(C)(C)CC2=O)NC2N=NC(C(F)(F)F)=C21 (some centres undefined) [US20250313563, Compound 884117] | < 100 nM | < 100 nM and 100 to 1000 nM
41 | CC[C@]1(c2ccccc2)C2=CN=NC2NC2=C1C(=O)C[C@](C)(COC)C2 (some centres undefined) [US20250313563, Compound 816875] | 100 to 1000 nM | 1000 to 5000 nM
42 | CC1CC(C(=O)N2CC3(C2)C[C@]2(CO3)C3=C(N=NC3)NC3=C2C(=O)CC(C)(C)C3)C1 (some centres undefined) [US20250313563, Compound 947732] | 100 to 1000 nM | 1000 to 5000 nM
43 | CCC1(c2cccc(C3CC3)c2)C2=CN=NC2NC2=C1C(=O)CC(C)(C)C2 (centres undefined) [US20250313563, Compound 801316] | < 100 nM | < 100 nM
44 | CC[C@@]1(c2cccc(-c3ccnn3C)c2)C2=CN=NC2NC2=C1C(=O)CC(C)(C)C2 (some centres undefined) [US20250313563, Compound 911993] | < 100 nM | 100 to 1000 nM
45 | CCC1(c2ccccc2)C2=C(N=NC2)NC2=C1C(=O)CCC2 (centres undefined) [US20250313563, Compound 789497] | 1000 to 5000 nM | > 5000 nM
46 | CC[C@]1(c2cccc(Br)c2)C2=C(C[C@@H](C)CC2=O)NC2N=NC(C(F)(F)F)=C21 (some centres undefined) [US20250313563, Compound 828847] | < 100 nM | < 100 nM
47 | CC1(C)CC(=O)C2=C(C1)NC1=C(CN=N1)C21CN(S(=O)(=O)C2CC2)C1 [US20250313563, Compound 913259] | < 100 nM | < 100 nM
48 | CC[C@@]1(c2cccc(C(F)(F)F)c2)C2=CN=NC2NC2=C1C(=O)N(c1ccc(C)cc1)CC2 (some centres undefined) [US20250313563, Compound 949119] | 1000 to 5000 nM | > 5000 nM
49 | CC[C@@]1(c2cccc(C(C)C)c2)C2=CN=NC2NC2=C1C(=O)NC(C)(C)C2 (some centres undefined) [US20250313563, Compound 949752] | > 5000 nM | > 5000 nM
50 | CC[C@@]1(c2cccc(-c3ccnn3C)c2)C2=C(CC(C)(C)CC2=O)NC2N=NC(C(F)(F)F)=C21 (some centres undefined) [US20250313563, Compound 947372] | < 100 nM | < 100 nM
51 | CC[C@]1(c2cccc(-c3ncnn3C)c2)C2=CN=NC2NC2=C1C(=O)CC(C)(C)C2 (some centres undefined) [US20250313563, Compound 945472] | < 100 nM | 100 to 1000 nM
52 | CCC1(c2cccc(C3CN(C(C)=O)C3)c2)C2=CN=NC2NC2=C1C(=O)CC(C)(C)C2 (centres undefined) [US20250313563, Compound 948779] | 1000 to 5000 nM | > 5000 nM
